Holding throughout (test): relative viability (nuclei count vs DMSO), 5 days (fraction); higher = more cells survive
Compound in the assay “Carfilzomib + Navitoclax”: CC(C)C[C@H](NC(=O)[C@H](CCc1ccccc1)NC(=O)CN1CCOCC1)C(=O)N[C@@H](Cc1ccccc1)C(=O)N[C@@H](CC(C)C)C(=O)[C@@]1(C)CO1 [Carfilzomib] + CC1(C)CCC(c2ccc(Cl)cc2)=C(CN2CCN(c3ccc(C(=O)NS(=O)(=O)c4ccc(N[C@H](CCN5CCOCC5)CSc5ccccc5)c(S(=O)(=O)C(F)(F)F)c4)cc3)CC2)C1 [Navitoclax] (partner 0.5 µM)
The gist of the method: (§1)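 One day after seeding in 1536-well plates, lung cancer cell lines were dosed by pin tool. Dosing was either single-drug or a fixed anchor-drug dose plus five library-drug doses (not always all listed) in √10 steps. After 5 days, nuclei were stained in one fix-and-stain step and counted on 4× images, and relative viability is the nuclei count of treated wells over that of vehicle wells, given as the median of duplicate plates.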

Compound in the assay “Crizotinib + OSI-027”: C[C@@H](Oc1cc(-c2cnn(C3CCNCC3)c2)cnc1N)c1c(Cl)ccc(F)c1Cl [Crizotinib] + COc1cccc2cc(-c3nc([C@H]4CC[C@H](C(=O)O)CC4)n4ncnc(N)c34)[nH]c12 [OSI-027] (partner 0.5 µM)
In short, it runs like this:
as §1

Compound in the assay “Olaparib + Bortezomib”: O=C(c1cc(Cc2n[nH]c(=O)c3ccccc23)ccc1F)N1CCN(C(=O)C2CC2)CC1 [Olaparib] + CC(C)C[C@H](NC(=O)[C@H](Cc1ccccc1)NC(=O)c1cnccn1)B(O)O [Bortezomib] (partner 0.002 µM)
In short, it runs like this:
as §1

Compound in the assay “Olaparib + Linsitinib”: O=C(c1cc(Cc2n[nH]c(=O)c3ccccc23)ccc1F)N1CCN(C(=O)C2CC2)CC1 [Olaparib] + C[C@]1(O)C[C@@H](c2nc(-c3ccc4ccc(-c5ccccc5)nc4c3)c3c(N)nccn32)C1 [Linsitinib] (partner 1 µM)
The gist of the method: as §1

Turning to UMC-11, the relative viability with Carfilzomib + Navitoclax (first compound 0.001 µM) was determined as 0.278; in the assay with Carfilzomib + Navitoclax (first compound 0.003162 µM), 0.326; with Carfilzomib + Navitoclax (first compound 0.01 µM), 0.332; in the assay with Carfilzomib + Navitoclax (first compound 0.03162 µM), 0.269; in the assay with Carfilzomib + Navitoclax (first compound 0.1 µM), 0.103; with Crizotinib + OSI-027 (first compound 0.01 µM), 0.418. The relative viability was 0.472 with Crizotinib + OSI-027 (first compound 0.03162 µM); 0.523 in the assay with Crizotinib + OSI-027 (first compound 0.1 µM); 0.434 with Crizotinib + OSI-027 (first compound 0.3162 µM); 0.46 with Crizotinib + OSI-027 (first compound 1 µM); 0.98 with Olaparib + Bortezomib (first compound 0.08 µM); 0.648 with Olaparib + Bortezomib (first compound 0.253 µM). Also, the relative viability in the assay with Olaparib + Bortezomib (first compound 2.53 µM) was 0.538; with Olaparib + Bortezomib (first compound 8 µM) it was 0.325; in the assay with Olaparib + Linsitinib (first compound 0.08 µM), 1.03; in the assay with Olaparib + Linsitinib (first compound 0.253 µM), 0.974; with Olaparib + Linsitinib (first compound 2.53 µM), 0.798; with Olaparib + Linsitinib (first compound 8 µM), 0.504.

These data come from the supplement of paper PMC10307832.
